According to PubChem BioAssay AID2060604 (Molecular Pharmacology Branch, DTP, NCI, 2025):

System: 379773-124-R-J2-PDC complex spheroids, viability % test/control
Experiment: Anticancer human tumor 379773-124-R-J2-PDC patient-derived endometrial carcinoma cell line growth inhibition [CLK]
Conditions: for IC50: curve of first compound; for viability, T/C: stronger effect = lower value; active = viability on the fitted dose curve at most 10% of control; inactive = the rest
How it was run: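 Multi-cell-type spheroids combined patient-derived tumor cells with HUVEC endothelial cells and human mesenchymal stem cells. Paired agents were dosed in half-log steps down from about clinical Cmax, or from 10 microM where Cmax was unknown.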
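Also: compound exposure lasted seven days before the viability readout.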
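For viability, T/C in this document: 100% = DMSO vehicle control wells.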

CC(C)CC(NC(=O)C(Cc1ccccc1)NC(=O)c1cnccn1)B(O)O (configuration not stated) + CNC(=O)c1ccc(Nc2nc(OC3CCCC3)c3c(-c4ccc5nc(C)oc5c4)c[nH]c3n2)c(OC)c1
active: viability, T/C (second compound 0.0316 µM, first compound 0.003 µM) 6.67% | viability, T/C (second compound 0.0316 µM, first compound 0.00949 µM) 0.17% | viability, T/C (second compound 0.0316 µM, first compound 0.03 µM) 0.19% | viability, T/C (second compound 0.0316 µM, first compound 0.0949 µM) 0.13% | viability, T/C (second compound 0.0316 µM, first compound 0.3 µM) 0.1% | viability, T/C (second compound 0.1 µM, first compound 0.003 µM) 3.4% | viability, T/C (second compound 0.1 µM, first compound 0.00949 µM) 0.32% | viability, T/C (second compound 0.1 µM, first compound 0.03 µM) 0.13% | viability, T/C (second compound 0.1 µM, first compound 0.0949 µM) 0.12% | viability, T/C (second compound 0.1 µM, first compound 0.3 µM) 0.09% | viability, T/C (second compound 0.316 µM, first compound 0.003 µM) 1.94% | viability, T/C (second compound 0.316 µM, first compound 0.00949 µM) 0.13% | viability, T/C (second compound 0.316 µM, first compound 0.03 µM) 0.1% | viability, T/C (second compound 0.316 µM, first compound 0.0949 µM) 0.08% | viability, T/C (second compound 0.316 µM, first compound 0.3 µM) 0.08% | viability, T/C (second compound 1 µM, first compound 0.003 µM) 1.88% | viability, T/C (second compound 1 µM, first compound 0.00949 µM) 0.11% | viability, T/C (second compound 1 µM, first compound 0.03 µM) 0.1% | viability, T/C (second compound 1 µM, first compound 0.0949 µM) 0.08% | viability, T/C (second compound 1 µM, first compound 0.3 µM) 0.08% | viability, T/C (second compound 3.16 µM, first compound 0.003 µM) 0.38% | viability, T/C (second compound 3.16 µM, first compound 0.00949 µM) 0.11% | viability, T/C (second compound 3.16 µM, first compound 0.03 µM) 0.09% | viability, T/C (second compound 3.16 µM, first compound 0.0949 µM) 0.1% | viability, T/C (second compound 3.16 µM, first compound 0.3 µM) 0.13% | viability, T/C (second compound 10 µM, first compound 0.003 µM) 0.42% | viability, T/C (second compound 10 µM, first compound 0.00949 µM) 0.13% | viability, T/C (second compound 10 µM, first compound 0.03 µM) 0.11% | viability, T/C (second compound 10 µM, first compound 0.0949 µM) 0.16% | viability, T/C (second compound 10 µM, first compound 0.3 µM) 0.12%
inactive: viability, T/C (second compound 0.0316 µM, first compound 0.000949 µM) 81.6% | viability, T/C (second compound 0.1 µM, first compound 0.000949 µM) 33.4% | viability, T/C (second compound 0.316 µM, first compound 0.000949 µM) 42.3% | viability, T/C (second compound 1 µM, first compound 0.000949 µM) 31.1% | viability, T/C (second compound 3.16 µM, first compound 0.000949 µM) 30.1% | viability, T/C (second compound 10 µM, first compound 0.000949 µM) 33.1%
1.54 nM: IC50 (second compound 0.0316 µM)
< 0.949 nM: IC50 (second compound 0.1 µM) | IC50 (second compound 0.316 µM) | IC50 (second compound 1 µM) | IC50 (second compound 3.16 µM) | IC50 (second compound 10 µM)
